Laboratory results published in patent publication US20240300932A1, “N-PHENYLIMINE DERIVATIVE AND PREPARATION METHOD AND USE THEREOF” (Guizhou University, priority 2023, published 2024).

Key:
Assay in all cases: Post-emergence herbicidal activity test (stem and leaf spray, pot culture)
Assay type in all cases: in vivo
Settings in all cases: 3 weeks after spraying
Amaranthus retroflexus = system: Amaranthus retroflexus
How it was run: (§1)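 Greenhouse pot-grown weeds (loam, pH 7) sprayed post-emergence at 2- to 3-leaf stage with acetone/Tween 80 formulation plus 1.5 liters/ha methyl oleate, at 10, 5 and 2.5 g/mu. Fresh-weight growth control rated 3 weeks later on 0–5 grade scale.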

Portulaca oleracea = system: Portulaca oleracea
How it was run: as §1

Setaria viridis = system: Setaria viridis
How it was run: as §1

Echinochloa crusgalli = system: Echinochloa crusgalli
How it was run: as §1

Abutilon theophrasti = system: Abutilon theophrasti
How it was run: as §1

Trifoliumre pensL. = system: Trifoliumre pensL.
How it was run: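 Pot-grown weeds in loam (pH 7), greenhouse at 20–30 °C, sprayed once post-emergence at the 2–3-leaf stage. Compound in acetone with Tween 80 plus methyl oleate oil (1.5 L/ha), applied at 10, 5 and 2.5 g/mu by spray tower. Effect scored 3 weeks after spraying, averaged over three repeats.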

Row | SMILES | Post-emergence herbicidal activity, A. retroflexus (grade) (Amaranthus retroflexus; dosage 2.5 g/mu) | Post-emergence herbicidal activity, A. retroflexus (grade) (Amaranthus retroflexus; dosage 5 g/mu) | Post-emergence herbicidal activity, A. retroflexus (grade) (Amaranthus retroflexus; dosage 10 g/mu) | Post-emergence herbicidal activity, P. oleracea (grade) (Portulaca oleracea; dosage 2.5 g/mu) | Post-emergence herbicidal activity, P. oleracea (grade) (Portulaca oleracea; dosage 5 g/mu) | Post-emergence herbicidal activity, P. oleracea (grade) (Portulaca oleracea; dosage 10 g/mu) | Post-emergence herbicidal activity, S. viridis (grade) (Setaria viridis; dosage 2.5 g/mu) | Post-emergence herbicidal activity, S. viridis (grade) (Setaria viridis; dosage 5 g/mu) | Post-emergence herbicidal activity, S. viridis (grade) (Setaria viridis; dosage 10 g/mu) | Post-emergence herbicidal activity, E. crusgalli (grade) (Echinochloa crusgalli; dosage 2.5 g/mu) | Post-emergence herbicidal activity, E. crusgalli (grade) (Echinochloa crusgalli; dosage 5 g/mu) | Post-emergence herbicidal activity, E. crusgalli (grade) (Echinochloa crusgalli; dosage 10 g/mu) | Post-emergence herbicidal activity, A. theophrasti (grade) (Abutilon theophrasti; dosage 2.5 g/mu) | Post-emergence herbicidal activity, A. theophrasti (grade) (Abutilon theophrasti; dosage 5 g/mu) | Post-emergence herbicidal activity, A. theophrasti (grade) (Abutilon theophrasti; dosage 10 g/mu) | Post-emergence herbicidal activity, Trifoliumre pensL. (grade) (Trifoliumre pensL.; dosage 2.5 g/mu) | Post-emergence herbicidal activity, Trifoliumre pensL. (grade) (Trifoliumre pensL.; dosage 5 g/mu) | Post-emergence herbicidal activity, Trifoliumre pensL. (grade) (Trifoliumre pensL.; dosage 10 g/mu)
1 | O=C1C2=C(CCCC2)C(=O)N1c1cc(OCc2nc(-c3ccc(Cl)nc3Cl)no2)c(Cl)cc1F [Compound A16] | 5 (Grade 5: the growth control rate is greater than or equal to 85%) | 5 (Grade 5: the growth control rate is greater than or equal to 85%) | 5 (Grade 5: the growth control rate is greater than or equal to 85%) | 4 (Grade 4: the growth control rate is greater than or equal to 60% and less than 85%) | 5 (Grade 5: the growth control rate is greater than or equal to 85%) | 5 (Grade 5: the growth control rate is greater than or equal to 85%) | 2 (Grade 2: the growth control rate is greater than or equal to 20% and less than 40%) | 3 (Grade 3: the growth control rate is greater than or equal to 40% and less than 60%) | 4 (Grade 4: the growth control rate is greater than or equal to 60% and less than 85%) | 1 (Grade 1: the growth control rate is greater than or equal to 5% and less than 20%) | 2 (Grade 2: the growth control rate is greater than or equal to 20% and less than 40%) | 3 (Grade 3: the growth control rate is greater than or equal to 40% and less than 60%) | 5 (Grade 5: the growth control rate is greater than or equal to 85%) | 5 (Grade 5: the growth control rate is greater than or equal to 85%) | 5 (Grade 5: the growth control rate is greater than or equal to 85%) | 4 (Grade 4: the growth control rate is greater than or equal to 60% and less than 85%) | 5 (Grade 5: the growth control rate is greater than or equal to 85%) | 5 (Grade 5: the growth control rate is greater than or equal to 85%)
2 | O=C1C2=C(CCCC2)C(=O)N1c1cc(OCc2nc(-c3cccc(C(F)(F)F)c3)no2)c(Cl)cc1F [Compound A17] | 5 (Grade 5: the growth control rate is greater than or equal to 85%) | 5 (Grade 5: the growth control rate is greater than or equal to 85%) | 5 (Grade 5: the growth control rate is greater than or equal to 85%) | 4 (Grade 4: the growth control rate is greater than or equal to 60% and less than 85%) | 5 (Grade 5: the growth control rate is greater than or equal to 85%) | 5 (Grade 5: the growth control rate is greater than or equal to 85%) | 2 (Grade 2: the growth control rate is greater than or equal to 20% and less than 40%) | 3 (Grade 3: the growth control rate is greater than or equal to 40% and less than 60%) | 4 (Grade 4: the growth control rate is greater than or equal to 60% and less than 85%) | 1 (Grade 1: the growth control rate is greater than or equal to 5% and less than 20%) | 2 (Grade 2: the growth control rate is greater than or equal to 20% and less than 40%) | 3 (Grade 3: the growth control rate is greater than or equal to 40% and less than 60%) | 5 (Grade 5: the growth control rate is greater than or equal to 85%) | 5 (Grade 5: the growth control rate is greater than or equal to 85%) | 5 (Grade 5: the growth control rate is greater than or equal to 85%) | 4 (Grade 4: the growth control rate is greater than or equal to 60% and less than 85%) | 5 (Grade 5: the growth control rate is greater than or equal to 85%) | 5 (Grade 5: the growth control rate is greater than or equal to 85%)
3 | O=C1C2=C(CCCC2)C(=O)N1c1cc(OCc2nc(-c3ccccc3C(F)(F)F)no2)c(Cl)cc1F [Compound A18] | 5 (Grade 5: the growth control rate is greater than or equal to 85%) | 5 (Grade 5: the growth control rate is greater than or equal to 85%) | 5 (Grade 5: the growth control rate is greater than or equal to 85%) | 4 (Grade 4: the growth control rate is greater than or equal to 60% and less than 85%) | 5 (Grade 5: the growth control rate is greater than or equal to 85%) | 5 (Grade 5: the growth control rate is greater than or equal to 85%) | 2 (Grade 2: the growth control rate is greater than or equal to 20% and less than 40%) | 3 (Grade 3: the growth control rate is greater than or equal to 40% and less than 60%) | 4 (Grade 4: the growth control rate is greater than or equal to 60% and less than 85%) | 1 (Grade 1: the growth control rate is greater than or equal to 5% and less than 20%) | 2 (Grade 2: the growth control rate is greater than or equal to 20% and less than 40%) | 3 (Grade 3: the growth control rate is greater than or equal to 40% and less than 60%) | 5 (Grade 5: the growth control rate is greater than or equal to 85%) | 5 (Grade 5: the growth control rate is greater than or equal to 85%) | 5 (Grade 5: the growth control rate is greater than or equal to 85%) | 4 (Grade 4: the growth control rate is greater than or equal to 60% and less than 85%) | 5 (Grade 5: the growth control rate is greater than or equal to 85%) | 5 (Grade 5: the growth control rate is greater than or equal to 85%)
4 | O=C1C2=C(CCCC2)C(=O)N1c1cc(OCc2nc(-c3cccs3)no2)c(Cl)cc1F [Compound A19] | 5 (Grade 5: the growth control rate is greater than or equal to 85%) | 5 (Grade 5: the growth control rate is greater than or equal to 85%) | 5 (Grade 5: the growth control rate is greater than or equal to 85%) | 4 (Grade 4: the growth control rate is greater than or equal to 60% and less than 85%) | 5 (Grade 5: the growth control rate is greater than or equal to 85%) | 5 (Grade 5: the growth control rate is greater than or equal to 85%) | 2 (Grade 2: the growth control rate is greater than or equal to 20% and less than 40%) | 3 (Grade 3: the growth control rate is greater than or equal to 40% and less than 60%) | 4 (Grade 4: the growth control rate is greater than or equal to 60% and less than 85%) | 1 (Grade 1: the growth control rate is greater than or equal to 5% and less than 20%) | 2 (Grade 2: the growth control rate is greater than or equal to 20% and less than 40%) | 3 (Grade 3: the growth control rate is greater than or equal to 40% and less than 60%) | 5 (Grade 5: the growth control rate is greater than or equal to 85%) | 5 (Grade 5: the growth control rate is greater than or equal to 85%) | 5 (Grade 5: the growth control rate is greater than or equal to 85%) | 4 (Grade 4: the growth control rate is greater than or equal to 60% and less than 85%) | 5 (Grade 5: the growth control rate is greater than or equal to 85%) | 5 (Grade 5: the growth control rate is greater than or equal to 85%)
